Source: patent US12286661B2, “Methods for making high intensity sweeteners” (Firmenich Incorporated, priority 2018, dated 2025)
“Also recorded” adds a separate entry of the source.

Legend:
[1] = system: Saccharomyces cerevisiae, Yarrowia lipolytica and Candida bombicola; experiment: Tolerance to microbial hydrolysis: yeast strains incubated in YPD with 1 mg/ml compound, supernatants analysed by HPLC; assay type: cell-based; conditions: after 3 days
Protocol: Yeast strains Saccharomyces cerevisiae, Yarrowia lipolytica and Candida bombicola, were incubated in YPD supplemented with 1 mg/ml Mogroside V or Compound 1. After 3 days, supernatants were analyzed by HPLC.

S. cerevisiae = experiment: Hydrolysis by hydrolytic enzymes of yeast grown in the presence of the compound, HPLC of lysed cells; assay type: cell-based; conditions: for mogroside content after incubation: S. cerevisiae
Protocol: (§1) S. cerevisiae or Y. lipolytica was grown in the presence of Mogroside V to allow the hydrolytic enzymes in the yeast to generate Mogroside IIIE. After 1 or 2 days, the cells were lysed in analyzed by HPLC to determine the mogroside content.
(§2) S. cerevisiae or Y. lipolytica was grown in the presence of Compound 1.

Y. lipolytica = experiment: as above; assay type: cell-based
Protocol: as §1, §2

cucurbitadienol = experiment: 11-OH cucurbitadienol production from cucurbitadienol by CYP450s expressed in S. cerevisiae, LCMS; assay type: cell-based; conditions: S. cerevisiae strain producing cucurbitadienol and expressing SgCPR; LCMS peak area of product vs. internal reference; hits over vector only control
Source text: (§3) DNA was obtained through gene synthesis either through Genescript, IDT, or Genewiz. For some of the cucurbitadienol synthases, cDNA or genomic DNA was obtained through 10-60 day old seedlings followed by PCR amplification using specific and degenerate primers. DNA was cloned through standard molecular biology techniques or through yeast gap repair cloning (Joska et al., 2014) into one of the following overexpression vectors: pESC-Ura, pESC-His, or pESC-LEU. Gene expression was regulated by one of the following promoters; Gall, Gal10, Tef1, or GDS. Yeast transformation was performed using Zymo Yeast Transformation Kit II. Yeast strains were grown in standard media (YPD or SC) containing the appropriate selection with 2% glucose or 2% galactose for induction of heterologous genes. Yeast strains were grown in shake flask or 96 well plates at 30° ° C., 140-250 rpm. When indicated, lanosterol synthase inhibitor, Ro 48-8071 (Cayman Chemicals) was added (50 ug/ml). Yeast samples producing mogrol precursors, mogrol and mogrosides were processed through one of the following: • Cucurbitadienol and 11-OH Cucurbitadienol: Samples cell pellets were lysed (Yeast Buster) followed by ethyl acetate extraction, drying, and resuspension in methanol. • ·Mogrol and Mogrosides: Samples cell pellets were lysed in 50% ETOH, incubated at 80° C. for 30 min, filtered, dried and resuspended in MeOH for LCMS screening.
For analyzing 11-OH cucurbitadienol, the LCMS method included the use of C8 2.1×100 mm column, gradient 60 to 90% B for 6 minutes at flow rate of 0.55 ml/min. For the enzyme screening, the LCMS method used was a Waters Acquity UPLC Protein BEH C4, 2.1×100 mm, 1.7 μm column and a gradient of 40% to 80% over 5 minutes, 95% B from 5.1 to 5.6 minutes with a flow rate of 0.55 ml/min, and ESI source positive mode single ion monitoring of 425.4.
Additional CYP450s were expressed in S. cerevisiae strain producing cucurbitadienol and expressing SgCPR. DNA and protein sequences for the CYP450 enzymes are shown in SEQ IDs 871-890 and 1024-1049 (see Table 1).

mogrol precursors = experiment: Mogrol production by EPHs tested in a yeast strain producing mogrol precursors; assay type: cell-based
Source text: as §3, with “Yeast samples producing mogrol precursors, mogrol and mogrosides were processed through one of the following: • Cucurbitadienol and 11-OH Cucurbitadienol: Samples cell pellets were lysed (Yeast Buster) followed by ethyl acetate extraction, drying, and resuspension in methanol. • ·Mogrol and Mogrosides: Samples cell pellets were lysed in 50% ETOH, incubated at 80° C. for 30 min, filtered, dried and resuspended in MeOH for LCMS screening.” left out

[2] = system: cucurbitadienol synthase activity; experiment: Cucurbitadienol synthase activities of fusion proteins in yeast strain with oxidosqualene boost, LCMS; assay type: cell-based, S. cerevisiae; conditions: average % activities over the average activities of the parent enzyme (Cucumis melo cucurbitadienol synthase)
Protocol: For analyzing cucurbitadienol, the first LCMS method included the use of C4 2.1×100 mm column, gradient 1 to 95% B for 6 minutes, and at flow rate of 0.55 ml/min; and the second LCMS method included the use of Waters Acquity UPLC Protein BEH C4 2.1×100 […], 1.7 μm, with guard, 62 to 67% B for 2 min, 100% B for 1 min, and at flow rate of 0.9 ml/min and ESI source positive single ion monitoring of 427 and 409.
The gene encoding for a cucurbitadienol synthase form Cucumis melo was codon optimized (SEQ ID: 907) and used as a starting point for generating a library of modifications. Modifications were introduced through standard molecular biology techniques consisting of fusion peptides at the N-terminus (i.e., 5′) or C-terminus (i.e., 3′) end of the enzyme. Plasmids libraries of modified cucurbitadienol synthase genes were transformed into a yeast strain with oxidosqualene boost. Enzyme activities were measured by ratios of peak heights or areas of 409 and 427 positive mass fragments at the expected retention times for cucurbitadienol vs. an internal standard using LCMS method 2 described above. Enzyme performance were scored as average % activities over the average activities of the parent enzyme (n=8). Step 1 sequences of the enzymes and the sequences that encode the enzyme can be found in SEQ ID NOs: 951-1012. Step 1 sequence also include the fusions SS2c-G10, SS2e-A7b, SS2d-G11. […]

Which “hydrolysis by yeast strains (hydrolysis products by HPLC)” value [1] does the source give for `C[C@H](CC[C@@H](O[C@@H]1O[C@H](CO[C@H]2O[C@H](CO)[C@@H](O)[C@H](O)[C@H]2O)[C@@H](O)[C@H](O)[C@H]1O[C@@H]1O[C@H](CO)[C@@H](O)[C@H](O)[C@H]1O)C(C)(C)O)C1CC[C@@]2(C)C3CC=C4C(CC[C@H](O[C@@H]5O[C@H](CO)[C@@H](O)[C@H](O)[C@H]5O)C4(C)C)[C@]3(C)[C@H](O)C[C@]12C` (some centres unmarked) [Compound 1] here?
The value was “no hydrolysis products observed; also recorded: tolerance of Compound 1 to hydrolysis by microbial enzymes”.

And the hydrolysis products (S. cerevisiae; S. cerevisiae grown in the presence of the compound)?
The hydrolysis products was “no hydrolysis products due to hydrolysis of Compound 1 was observed; also recorded: no hydrolysis product from Compound 1 was detected”.

And the hydrolysis products (Y. lipolytica; Y. lipolytica grown in the presence of the compound)?
The hydrolysis products was “no hydrolysis products due to hydrolysis of Compound 1 was observed; also recorded: no hydrolysis product from Compound 1 was detected”.

For `C[C@H](CC[C@@H](O[C@@H]1O[C@H](CO[C@@H]2O[C@H](CO)[C@@H](O)[C@H](O)[C@H]2O)[C@@H](O)[C@H](O)[C@H]1O[C@@H]1O[C@H](CO)[C@@H](O)[C@H](O)[C@H]1O)C(C)(C)O)[C@H]1CC[C@@]2(C)[C@@H]3CC=C4[C@@H](CC[C@H](O[C@@H]5O[C@H](CO[C@@H]6O[C@H](CO)[C@@H](O)[C@H](O)[C@H]6O)[C@@H](O)[C@H](O)[C@H]5O)C4(C)C)[C@]3(C)[C@H](O)C[C@]12C` [Mogroside V, reference compound], which “hydrolysis by yeast strains (hydrolysis products by HPLC)” value [1] is on record?
The value was “hydrolyzed Mogroside V to Mogroside IIIE”.

And the “mogroside content after incubation” value (S. cerevisiae; 1 day of incubation)?
Its value is “produced a mixture of Mogroside V, Mogrosides IV, and Mogroside IIIE”.

What about the “mogroside content after incubation” value (S. cerevisiae; 2 days of incubation) of the same molecule?
Its value is “substantially all of the mogrosides were converted to Mogroside IIIE”.

What about the “mogroside content after incubation” value (Y. lipolytica; Y. lipolytica, 2 days of incubation) of the same molecule?
Its value is “produced mostly Mogroside IIIE”.

B1: SEQ ID NO. 1048/1049: CYP450 enzyme (DNA/protein SEQ ID NO) producing 11-OH cucurbitadienol (protein, listed as Siraitia grosvenorii)
chain: MWLLLIGAIVVLSFTRWLYGWKNPKCNGKLPPGSMGFPLLGETLQFFSPNTSSDVPPFIRKRMDRYGPIFRTNLVGRPLIVSTDSDLNYFIFQQEGQLFQSWYPDTFTEIFGRQNVGSLHGFMYKYLKNMVLHLFGPESLRKMIPEVEAAATRRLRQWSSHNTVELKDETASMIFDLTAKKLISYDLESSSENLRDNFVAFIQGLISFPLNVPGTAYHKCLQGRKRAMRMLKNMLQERRANPRKQQIDFFDFVLEELEKDGTLLTEEIALDLMFVLLFASFETTSLALTAAIKFLLDNPHVLEELTAEHEGILKRRENADSGLTWGEYKSMTFTFQFINETVRLANIVPGIFRKALRDIQFKGYTIPAGWAVMVCPPAVHLNPEKYIDPLAFNPWRWEKSELNGASKHFMAFGGGMRFCVGTDFTKVQMAVFLHCLVTKYRFKAIKGGNIIRTPGLQFPNGFHIQITEK
Which “Peak Area 11-OH CCB” value (cucurbitadienol) does the source give for B1 here?
Its value is 0.2083.

B2: SEQ ID NO. 1072 and 1073: epoxide hydrolase (EPH); coding DNA and protein sequence (protein)
chain: MDAIQHTTIKTNGIKMHIASVGNGPVVLLLHGFPELWYSWRHQLLYLSSVGYRAIAPDLRGYGDTDSPESHTSYTALHIVGDLVGALDELGIEKVFLVGHDWGAIIAWYFCLFRPERIKALVNLSVQFFPRNPAISFIQRFRAAYGDDFYMCRFQVPGEAEADFACIDTAQLFKTTLSNRSTKAPCLPKEYGFRAIPPPENLPSWLTEEDINYYAAKFKETGFTGALNYYRAFDLTWELTAPWTGVQIQVPVKFIVGDSDLTYHFKGAKEYIHEGGFKRDVPLLEEVVIVENAGHFVHEEKPHEINTHIHDFIKKF
modifications: Cucumis melo
For B2, which “ability to produce mogrol” value (mogrol precursors) is on record?
Its value is “showed the ability to produce mogrol”.

B3: SEQ ID NO. 1024/1025: CYP450 enzyme (DNA/protein SEQ ID NO) producing 11-OH cucurbitadienol (protein, listed as Citrullus lanatus)
chain: MWTILLGLATLAIAYYIHWVNKWKDSKFNGVLPPGTMGLPLIGETIQLSRPSDSLDVHPFIQSKVKRYGPIFKTCLAGRPVVVSTDAEFNHYIMLQEGRAVEMWYLDTLSKFFGLDTEWLKALGLIHKYIRSITLNHFGAESLRERFLPRIEESARETLHYWSTQPSVEVKESAAAMVFRTSIVKMFSEDSSKLLTGGLTKKFTGLLGGFLTLPLNLPGTTYNKCIKDMKEIQKKLKDILEERLAKGTGNDEDFLGQAIKDKESQQFISEEFIIQLLFSISFASFESISTSLTLILKFLADHPQVVKELEAEHEAIQKARADPDGPITWEEYKSMTFTLNVISETLRLGSVTPALLRKTTKEIQIKGYTIPEGWTVMLVTASRHRDPEVYKDPDTFNPWRWKELDSITVQKNFMPFGGGLRHCAGAEYSKVYLCTFLHILFTKYRWTKLKGGKIARAHILRFEDGLHVKFTPKE
How did the “Peak Area 11-OH CCB” value (cucurbitadienol) turn out when B3 was run?
Its value is 1.231.

B4: SEQ ID NO 1024: fusion protein having cucurbitadienol synthase activity (protein, listed as Citrullus lanatus)
chain: B3 chain
Which “Activity (as compared to the parent)” value [2] does the source give for B4 here?
The value was 166%.
